Converted amounts (≈) assume the structure as drawn.
How the values were obtained:
CCRF-CEM = assay: Cytotoxic activity against mammalian cells in tissue culture (MTT); type: cell-based, human
Experimental: (§1) For examinations were used selected cell lines: CCRF-CEM—human acute lymphoblastic leukemia; HepG2—human malignant hepatoma; LLC-PK1—epithelial cell of pig kidney; All lines were from ATCC collection.
(§2) The study are conducted using described below methods of culturing and determination of cytotoxic activity.
(§3) CCRF-CEM cells were cultured in medium RPMI 1640+10% fetal bovine serum (FBS), LLC-PK1 cells in medium Medium 199+3% FBS, HepG2 cells in medium MEM+10% FBS. All media contained 100 μg/ml of penicillin G and streptomycin. 24-wells microplates containing appropriate medium were inoculated with the cells in amount of 1.2×10^4 cells/well and allowed to stand overnight. Next, tested compounds as solution in dimethylsulfoxide (DMSO) were added in volume of 10 μl (serial 2× dilutions). To control well 10 μl of DMSO was added. Microplates with cell suspensions were incubated for 120 h at temperature 37° C. at atmosphere of 95%/5% CO2. After incubation, to all wells 200 μl of solution of 3-(4,5-dimethylthiazole-2-yl)-2,5-diphenylotetrazole bromide (MTT) in PBS (4 mg/ml) was added and plates were further incubated for 4 h at 37° C. Next, to dissolve crystals of formazane 1 ml of DMSO was added and absorption of solutions was measured at the wavelength λ=540 nm (A540), using a microplates reader (Victor^3, Perkin-Wallac). […] From these graphs IC50 values were read, that is concentration of tested compound in the presence at which A540 value is half of A540 value measured in the control sample.

HepG2 = assay: as above; type: cell-based, human
Experimental: as §1, §2, §3

Candida albicans STY31 = assay: Antifungal activity towards resistant (MDR) strains; type: cell-based; conditions: 5674 mutant derivative, deletion of CDR1 and CDR2
Experimental: (§4) The determination of antifungal activity was performed by the serial dilutions method in buffered RPMI 1640 medium, in a 96-wells microplates, according to the standard procedure (National Committee for Clinical Laboratory Standards. Reference method for broth dilution antifungal susceptibility testing of yeast, approved standard, 2nd ed. M27-A2 vol. 22 Wayne, Pa., 2002). The optical density of cells suspension was measured using a microplates reader (Victor^3, Perkin-Elmer) at the wavelength λ=660 nm (A660). On the basis of received results the diagrams on interrelation between the A660 value and the concentration of tested compound were made. From these graphs MIC values were read, that are the concentrations of tested compounds, in the presence at which A660 value is at most 20% of A660 value measured in control sample.

Candida albicans Gu4 = assay: as above; type: cell-based; conditions: fluconazole sensitive, parent strain for Gu5
Experimental: as §4

Candida albicans STY19 = assay: as above; type: cell-based; conditions: 5674 mutant derivative, deletion of CDR1
Experimental: as §4

Candida albicans F5 = assay: as above; type: cell-based; conditions: fluconazole-resistant due to the overexpression of CaMDR1 and ERG11
Experimental: as §4

Candida albicans 5674 = assay: as above; type: cell-based; conditions: C. albicans 5674 overexpressing CDR1 and CDR2
Experimental: as §4

Candida albicans B4 = assay: as above; type: cell-based; conditions: fluconazole-resistant due to the overexpression of CaMDR1
Experimental: as §4

Candida albicans STY7 = assay: as above; type: cell-based; conditions: 5674 mutant derivative, deletion of CDR2
Experimental: as §4

Candida albicans Gu5 = assay: as above; type: cell-based; conditions: fluconazole-resistant due to the overexpression of CDR1 and CDR2
Experimental: as §4

Candida albicans F2 = assay: as above; type: cell-based; conditions: fluconazole sensitive, parent strain for F5
Experimental: as §4

Candida albicans B3 = assay: as above; type: cell-based; conditions: fluconazole sensitive, parent strain for B4
Experimental: as §4

Human erythrocytes = assay: Hemotoxicity (hemolytic activity)
Method in brief: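 Human erythrocytes in saline (2×10^7/ml) were incubated with serially diluted compound at 37 °C for 30 min, then centrifuged. Released hemoglobin was read as A540 against 0.1% Triton X-100 as full hemolysis. EH50 is the interpolated concentration giving 50% of the control A540.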

[1] = test system: Candida stellatoidea CBS 1905; assay: Antifungal activity in vitro, serial dilution in RPMI 1640; type: cell-based; conditions: Table 2B
Method in brief: (§5)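 In buffered RPMI 1640 at pH 7.0, fungi were exposed to serially diluted compound (M27-A2 standard) and turbidity was recorded at 531 nm. Values relative to control: IC50 at 50%, MIC as lowest concentration at ≤20%.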

Candida arborea KKP 319 = assay: as above; type: cell-based; conditions: Table 2B
Method in brief: as §5

[2] = test system: Candida quilliermondii DSM 11947; assay: as above; type: cell-based; conditions: Table 2B
Method in brief: as §5

[3] = test system: Trichoderma viride LOCK E159; assay: as above; type: cell-based; conditions: Table 2B
Method in brief: as §5

[4] = test system: Candida parapsilosis DSM 5784; assay: as above; type: cell-based; conditions: Table 2B
Method in brief: as §5

[5] = test system: Candida albicans ATCC 10231; assay: as above; type: cell-based; conditions: for Antifungal activity Candida albicans ATCC 10231 IC50 / Antifungal activity Candida albicans ATCC 10231 MIC: Table 2A, RPMI 1640, pH 7.0; for Antifungal activity Candida albicans ATCC 10231 IC50: A531 50% of control; for Antifungal activity Candida albicans ATCC 10231 MIC: A531 at most 20% of control; for MIC Candida albicans ATCC 10231: Table 2B
Method in brief: as §5

Candida krusei DSM 6128 = assay: as above; type: cell-based; conditions: Table 2A; RPMI 1640, pH 7.0
Method in brief: as §5

[6] = test system: Candida lipolytica KKP 322; assay: as above; type: cell-based; conditions: Table 2B
Method in brief: as §5

[7] = test system: Candida tropicalis KKP 334; assay: as above; type: cell-based; conditions: Table 2A; RPMI 1640, pH 7.0
Method in brief: as §5

[8] = test system: Aspergillus niger LOCK E201; assay: as above; type: cell-based; conditions: Table 2B
Method in brief: as §5

[9] = test system: Saccharomyces cerevisiae ATCC 9763; assay: as above; type: cell-based; conditions: for Antifungal activity Saccharomyces cerevisiae ATCC 9763 MIC: Table 2A, RPMI 1640, pH 7.0, A531 at most 20% of control; for MIC Saccharomyces cerevisiae ATCC 9763: Table 2B
Method in brief: as §5

[10] = test system: Candida glabrata DSM 11226; assay: as above; type: cell-based; conditions: Table 2A; RPMI 1640, pH 7.0
Method in brief: as §5

[11] = test system: Candida pseudotropicalis KKP 324; assay: as above; type: cell-based; conditions: Table 2B
Method in brief: as §5

[12] = test system: Candida dubliniensis CBS 7987; assay: as above; type: cell-based; conditions: Table 2B
Method in brief: as §5

LLC-PK1 = assay: Cytotoxic activity against mammalian cells in tissue culture (MTT); type: cell-based, pig
Experimental: as §1, §2, §3

Row | SMILES | Cytotoxicity IC50 CCRF-CEM (CCRF-CEM) | Cytotoxicity IC50 HepG2 (HepG2) | MIC Candida albicans STY31 (Candida albicans STY31) | MIC Candida albicans Gu4 (Candida albicans Gu4) | MIC Candida albicans STY19 (Candida albicans STY19) | MIC Candida albicans F5 (Candida albicans F5) | MIC Candida albicans 5674 (Candida albicans 5674) | MIC Candida albicans B4 (Candida albicans B4) | MIC Candida albicans STY7 (Candida albicans STY7) | MIC Candida albicans Gu5 (Candida albicans Gu5) | MIC Candida albicans F2 (Candida albicans F2) | MIC Candida albicans B3 (Candida albicans B3) | MIC Candida stellatoidea CBS 1905 [1] | MIC Candida arborea KKP 319 (Candida arborea KKP 319) | MIC Candida quilliermondii DSM 11947 [2] | MIC Trichoderma viride LOCK E159 [3] | MIC Candida parapsilosis DSM 5784 [4] | Antifungal activity Candida albicans ATCC 10231 IC50 [5] | Antifungal activity Candida albicans ATCC 10231 MIC [5] | MIC Candida albicans ATCC 10231 [5] | other results
1 | CCCN(CCC)[C@@H]1[C@H](O)[C@H](O[C@H]2/C=C/C=C/C=C/C=C/CC/C=C/C=C/[C@H](C)[C@@H](O)[C@@H](C)[C@H](C)OC(=O)C[C@H](O)C[C@H](O)C[C@H](O)CC[C@@H](O)[C@H](O)C[C@]3(O)C[C@H](O)[C@@H](C(=O)O)[C@H](C2)O3)O[C@H](C)[C@H]1O [Compound N22, N,N-di-n-propylnystatin A1] | >100 µg/mL | 82.9 ± 19.87 µg/mL | 4 µg/mL (≈ 3.96 µM) | 8 µg/mL (≈ 7.92 µM) | 4 µg/mL (≈ 3.96 µM) | 4 µg/mL (≈ 3.96 µM) | 4 µg/mL (≈ 3.96 µM) | 8 µg/mL (≈ 7.92 µM) | 4 µg/mL (≈ 3.96 µM) | 8 µg/mL (≈ 7.92 µM) | 4 µg/mL (≈ 3.96 µM) | 8 µg/mL (≈ 7.92 µM) | 4 µg/mL (≈ 3.96 µM) | 8 µg/mL (≈ 7.92 µM) | 8 µg/mL (≈ 7.92 µM) | 8 µg/mL (≈ 7.92 µM) | 8 µg/mL (≈ 7.92 µM) | 3.14 µg/mL | 4 µg/mL | 4 µg/mL (≈ 3.96 µM) | EH10 (Human erythrocytes): 202.34 µg/mL; Antifungal activity Candida krusei DSM 6128 MIC (Candida krusei DSM 6128): 8 µg/mL; MIC Candida lipolytica KKP 322 [6]: 4 µg/mL (≈ 3.96 µM); Antifungal activity Candida tropicalis KKP 334 MIC [7]: 4 µg/mL; MIC Aspergillus niger LOCK E201 [8]: 8 µg/mL (≈ 7.92 µM); Antifungal activity Saccharomyces cerevisiae ATCC 9763 MIC [9]: 2 µg/mL; MIC Saccharomyces cerevisiae ATCC 9763 [9]: 2 µg/mL (≈ 1.98 µM); Antifungal activity Candida glabrata DSM 11226 MIC [10]: 4 µg/mL; MIC Candida pseudotropicalis KKP 324 [11]: 4 µg/mL (≈ 3.96 µM); MIC Candida dubliniensis CBS 7987 [12]: 2 µg/mL (≈ 1.98 µM); Cytotoxicity IC50 LLC-PK1 (LLC-PK1): >100 µg/mL
2 | CC1OC(O[C@H]2/C=C/C=C/C=C/C=C/CC/C=C/C=C/[C@H](C)[C@@H](O)[C@@H](C)[C@H](C)OC(=O)C[C@H](O)C[C@H](O)C[C@H](O)CC[C@@H](O)[C@H](O)CC3(O)C[C@H](O)[C@@H](C(=O)O)[C@H](C2)O3)C(O)C(NC(=O)[C@H](N)CCC(=O)OC(C)(C)C)C1O (stereo partly drawn) [Compound N37, N-D-(O-tert-butyl)glutamylnystatin A1] | >100 µg/mL | >100 µg/mL | 32 µg/mL (≈ 28.8 µM) | 8 µg/mL (≈ 7.2 µM) | 32 µg/mL (≈ 28.8 µM) | 16 µg/mL (≈ 14.4 µM) | 32 µg/mL (≈ 28.8 µM) | 8 µg/mL (≈ 7.2 µM) | 32 µg/mL (≈ 28.8 µM) | 8 µg/mL (≈ 7.2 µM) | 16 µg/mL (≈ 14.4 µM) | 8 µg/mL (≈ 7.2 µM) | 8 µg/mL (≈ 7.2 µM) | 32 µg/mL (≈ 28.8 µM) | 16 µg/mL (≈ 14.4 µM) | 32 µg/mL (≈ 28.8 µM) | 16 µg/mL (≈ 14.4 µM) | 2.73 µg/mL | 4 µg/mL | 4 µg/mL (≈ 3.6 µM) | % of hemolysis at the concentration 60 μg ml^−1 (Human erythrocytes): 0.04%; Antifungal activity Candida krusei DSM 6128 MIC (Candida krusei DSM 6128): 8 µg/mL; MIC Candida lipolytica KKP 322 [6]: 16 µg/mL (≈ 14.4 µM); Antifungal activity Candida tropicalis KKP 334 MIC [7]: 4 µg/mL; MIC Aspergillus niger LOCK E201 [8]: 16 µg/mL (≈ 14.4 µM); Antifungal activity Saccharomyces cerevisiae ATCC 9763 MIC [9]: 4 µg/mL; MIC Saccharomyces cerevisiae ATCC 9763 [9]: 4 µg/mL (≈ 3.6 µM); Antifungal activity Candida glabrata DSM 11226 MIC [10]: 8 µg/mL; MIC Candida pseudotropicalis KKP 324 [11]: 8 µg/mL (≈ 7.2 µM); MIC Candida dubliniensis CBS 7987 [12]: 8 µg/mL (≈ 7.2 µM); Cytotoxicity IC50 LLC-PK1 (LLC-PK1): 85.5 ± 4.30 µg/mL
